# Reference: US5698691A, “Condensed cyclic compounds and their use” (Takeda Chemical Industries, Ltd., priority 1993, dated 1997)
# Experiments:
# [1] = biological target: T1, squalene synthetase (Rattus norvegicus, UniProt Q02769); assay: Squalene synthetase inhibitory activity, rat-derived enzyme (liver microsome fraction); format: biochemical; conditions: SD rat liver microsome fraction; 5 uM [1-3H] farnesyl pyrophosphate, 37° C., 45 minutes
# T1 construct: from tissue; host or cells: rat liver microsome fraction (SD male rat, 6 weeks old)
# T1 sequence (Q02769 1-416): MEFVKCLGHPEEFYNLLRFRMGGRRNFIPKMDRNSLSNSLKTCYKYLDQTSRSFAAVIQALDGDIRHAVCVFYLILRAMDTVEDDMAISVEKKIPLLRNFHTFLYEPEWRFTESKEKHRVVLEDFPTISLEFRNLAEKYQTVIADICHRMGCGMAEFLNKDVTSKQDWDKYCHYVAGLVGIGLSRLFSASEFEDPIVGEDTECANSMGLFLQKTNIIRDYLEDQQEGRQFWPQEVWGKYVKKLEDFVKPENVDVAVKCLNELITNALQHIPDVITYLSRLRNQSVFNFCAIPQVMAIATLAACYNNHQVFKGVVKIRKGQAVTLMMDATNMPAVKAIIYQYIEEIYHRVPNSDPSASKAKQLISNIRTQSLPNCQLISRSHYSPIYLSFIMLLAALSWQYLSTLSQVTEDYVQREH
# Description: (§1) Assay Method of Squalene Synthetase Inhibitory Activity
# (§2) The squalene synthetase inhibitory activity was assayed as follows with the enzyme solutions described in the subsequent Experimental Examples 1 and 2.
# (§3) More specifically, an enzyme solution (protein content 0.8 ug) prepared in Experimental Example 1 or 2 was added to a solution (total volume 50 μl)) containing 5 uM [1-^3 H] farnesyl pyrophosphate (specific activity 25 uCi/mole), 1 mM NADPH, 5 mM MgCl2, 6 mM glutathione, a 100 mM buffer solution of potassium phosphate (pH 7.4) and a test drug (used as an aqueous solution or a DMSO solution), then the reaction was allowed to proceed at 37° C. for 45 minutes. To the reaction mixture was added 150 μl of a mixture of chloroform and methanol (1:2) to suspend the reaction, followed by adding 50 μl of chloroform and 50 μl of a 3N aqueous solution of sodium hydroxide. 50 μl of the chloroform layer (lower layer) containing the reaction mixture having squalene as the principal component and 3 ml of toluene-based liquid scintillator were mixed, and its radioactivity was determined by means of a liquid scintillation counter.
# (§4) The squalene synthetase inhibitory activity was expressed in terms of the concentration inhibiting by 50% the radioactivity taken into the chloroform layer (IC50, molar concentration (M)).
# An SD male rat (6 week old) was killed by bleeding, and its liver was excised. About 10 g of the liver was washed with a saline solution cooled with ice, which was then homogenized in 15 ml of an ice-cooled buffer solution [100 mM potassium phosphate (pH 7.4), 15 mM nicotinamide, 2 mM MgCl2 ], followed by centrifugation for 20 minutes (4° C.) with 10000×g. The supernatant layer was separated and subjected to further centrifugation for 90 minutes (4° C.) at 105000×g. The sediment was then suspended in an ice-cooled 100 mM phosphate buffer solution (pH 7.4), which was again subjected to centrifugation for 90 minutes (4° C.) at 105000×g. The sediment thus obtained (microsome fraction) was suspended in an ice-cooled 100 mM potassium phosphate buffer (pH 7.4) (about 40 mg/ml protein concentration, determined with BCA protein assay kit of Pias Co., Ltd.). This suspension was used as the enzyme solution.
# [2] = biological target: T2, squalene synthetase (Homo sapiens, UniProt P37268); assay: Squalene synthetase inhibitory activity, human-derived enzyme (HepG2 microsome fraction); format: biochemical; conditions: 5 uM [1-3H] farnesyl pyrophosphate, 37° C., 45 minutes
# T2 construct: endogenous in cells; host or cells: HepG2 (human hepatic carcinoma) cells, microsome fraction
# T2 sequence (P37268 1-417): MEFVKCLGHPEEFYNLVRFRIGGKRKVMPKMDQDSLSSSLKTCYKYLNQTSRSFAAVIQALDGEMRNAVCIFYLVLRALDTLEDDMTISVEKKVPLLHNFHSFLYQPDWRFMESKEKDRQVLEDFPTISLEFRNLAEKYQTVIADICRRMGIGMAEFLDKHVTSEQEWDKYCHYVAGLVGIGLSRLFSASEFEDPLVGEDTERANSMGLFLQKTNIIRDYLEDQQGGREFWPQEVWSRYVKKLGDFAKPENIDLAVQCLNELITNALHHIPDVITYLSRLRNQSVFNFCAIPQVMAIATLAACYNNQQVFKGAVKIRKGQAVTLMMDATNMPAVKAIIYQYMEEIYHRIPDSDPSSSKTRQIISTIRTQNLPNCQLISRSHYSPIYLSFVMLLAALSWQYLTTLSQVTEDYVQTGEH
# Description: as §1, §2, §3, §4
# Human hepatic carcinoma cells HepG2 (about 1×10^9 cells) obtained by incubation in a Dulbecco-modified Eagle's medium (37° C. in the presence of 5% CO2) were suspended in 10 ml of an ice-cooled buffer solution [100 mM potassium phosphate buffer (pH 7.4), 30 mM nicotinamide and 2.5 mM MgCl2 ]. The cells were crashed by means of ultrasonication (for 30 seconds, twice). From the sonicate thus obtained, the microsome fraction was obtained by the same procedure as in Experiment Example 1, which was suspended in an ice-cooled 100 mM potassium phosphate buffer (pH 7.4) (about 4 mg/ml protein concentration). This suspension was used as the enzyme solution. The results are shown in [Table 4].
IC50 [1] [nM],IC50 [2] [nM],SMILES
51,25,"CC(C)CN1C(=O)[C@@H](CC(=O)O)S[C@H](c2ccccc2Cl)c2cc(Cl)ccc21 (relative stereo) [Example 10-5, 3,5-trans-7-Chloro-5-(2-chlorophenyl)-1-isobutyl-2-oxo-1,2,3,5-tetrahydro-4,1-benzothiazepine-3-acetic acid]"
23,13,"COc1ccccc1C1SC(CC(=O)O)C(=O)N(CC(C)(C)C)c2ccc(Cl)cc21 (stereo not drawn) [Example 10-8, 3,5-trans-7-Chloro-5-(2-methoxyphenyl)-1-neopentyl-2-oxo-1,2,3,5-tetrahydro-4,1-benzothiazepine-3-acetic acid]"
26,13,"COc1ccccc1[C@H]1S[C@H](CC(=O)O)C(=O)N(CC(C)C)c2ccc(Cl)cc21 (relative stereo) [Example 10-7, 3,5-trans-7-Chloro-5-(2-methoxyphenyl)-1-isobutyl-2-oxo-1,2,3,5-tetrahydro-4,1-benzothiazepine-3-acetic acid]"
21,18,"COc1ccc([C@H]2S[C@H](CC(=O)O)C(=O)N(CC(C)(C)C)c3ccc(Cl)cc32)c(OC)c1 [Example 51, (3R,5S)-7-Chloro-5-(2,4-dimethoxyphenyl)-1-neopentyl-2-oxo-1,2,3,5-tetrahydro-4,1-benzothiazepine-3-acetic acid]"
